Consider 2 compounds from patent US20190240176A1, “METHODS OF TREATMENT FOR MYELOID LEUKEMIA” (The University of Georgia Research Foundation, Inc., priority 2016, published 2019).

In series [1] the test system is human AML cell lines (MV4-11, U937, HL60). As to the kind of experiment: Colony formation assay, human AML cell lines. Conditions: FIG. 11G-I. The class given is cell-based. The protocol: (§1) The human BC-CML cell line K562, the human acute leukemia cell lines MV4-11 and U937 were maintained in Roswell Park Memorial Institute 1640 medium (RPMI-1640) with 10% FBS, 100 IU/ml penicillin and 100 μg/ml streptomycin. The human acute promyelocytic leukemia cell line HL60 was maintained in RPMI supplemented with 20% FBS. All human cell lines were obtained from ATCC, and cell line authentication testing was performed by ATCC-standardized STR analysis to verify their identity in July 2016. For the colony forming assays, the cells were transduced with lentiviral shRNA and plated in triplicate in 1.2% methylcellulose medium (R&D systems) supplemented with 100 IU/ml penicillin and 100 μg/ml streptomycin, 10% FBS. Where indicated, either BCAAs (L-Leucine, L-Valine, L-Isoleucine, 4 mM each, Sigma-Aldrich), L-alanyl-L-glutamine (4 mM, GlutaMax™, Life Technologies), rapamycin (50 nM, Tocris) or gabapentin (Gbp; Tokyo Chemical Industry Co.) was added to the medium. Gbp was freshly dissolved in PBS before use. Colonies were scored on days 9 to 14. […] Colonies were scored on days 7 to 10.

The conditions of series [2]: in water and in both basic and acidic aqueous solutions; cited from earlier work.
The test system of the next series is normal HSPCs. As to the kind of experiment: Colony formation assay, normal HSPCs (LSK cells). The class given is cell-based, mouse. To be noted: FIGS. 9E-F. As for the experimental part:
as §1

Series [3] has as its system intracellular BCAAs in K562 cells. As to the kind of experiment: Intracellular amino acid quantification in K562 cells. The class given is cell-based, human. Conditions: compared with the controls, FIGS. 12A-B. The protocol: Leukemia cells or peripheral blood samples drawn from mice bearing myeloid leukemia were used for amino acid and keto acid analysis by high-performance liquid chromatography (HPLC)-fluorescence detection, as described^32-34. In brief, two hundred thousand live leukemia cells per sample were sorted and washed twice with ice-cold PBS to remove media components prior to amino acid extraction. The blood plasma was prepared by centrifugation of the peripheral blood samples at 2,000×g at 4° C. for 10 min. […] For amino acid quantification, the dried samples were treated with the amine-reactive 4-fluoro-7-nitro-2,1,3-benzoxadizole (NBD-F) to derivatize the amino acids. […] The gradient conditions were as follows: t=0 min, 10% B; t=20 min, 50% B; and t=30 min, 100% B. For NBD-Asn, Ser, Thr, Gln and Phe analysis, 25 mM citrate buffer containing 25 mM sodium perchlorate (pH 4.4) was used as the mobile phase A. NBD-amino acids were detected with excitation and emission wavelengths of 470 and 530 nm, respectively. For keto acid quantification, dried samples were treated with o-phenylenediamine (OPD) to derivatize alpha-keto acids, followed by liquid-liquid extraction with ethyl acetate. […] The fluorescence detection was carried out at the emission wavelength of 410 nm with excitation of 350 nm.

For series [4], the system named is primary human BC-CML cells. In words: Colony formation assay, patient-derived primary BC-CML cells. The class given is cell-based. To be noted: patient-derived primary leukemia cells; FIGS. 3D-E, 11E-F. As for the experimental part: (§2) Patient blood samples were obtained at the Institute of Medical Science, the University of Tokyo (IMSUT) Hospital with written informed consent according to the procedures approved by the Institutional Review Board. Mononuclear cells from the subjects were viably frozen and stored in liquid nitrogen. For in vitro colony formation with BCAT1 knockdown, primary hCD34^+ cells sorted from patient bone marrow samples were cultured in IMDM supplemented with 10% FBS, 100 IU/ml penicillin and 100 μg/ml streptomycin, 55 μM 2-mercaptoethanol, SCF, IL-3, IL-6, FLT3L and TPO. After 24 h of culture, the cells were transduced with lentiviral shRNA (cloned in FG12-UbiC-GFP), and the GFP-positive infected cells were sorted at 48 h, and 5,000-50,000 cells were plated in complete methylcellulose medium (Methocult H4435, StemCell Technologies). For the colony forming assays with Gbp, sorted hCD34^+ cells from the primary patient specimens were cultured in complete methylcellulose medium with the indicated concentrations of Gbp. Colonies were scored on days 9 to 14.

The next series concerns the target T1, BCAT1 (Homo sapiens, UniProt P54687).
T1 sequence (P54687 1-386): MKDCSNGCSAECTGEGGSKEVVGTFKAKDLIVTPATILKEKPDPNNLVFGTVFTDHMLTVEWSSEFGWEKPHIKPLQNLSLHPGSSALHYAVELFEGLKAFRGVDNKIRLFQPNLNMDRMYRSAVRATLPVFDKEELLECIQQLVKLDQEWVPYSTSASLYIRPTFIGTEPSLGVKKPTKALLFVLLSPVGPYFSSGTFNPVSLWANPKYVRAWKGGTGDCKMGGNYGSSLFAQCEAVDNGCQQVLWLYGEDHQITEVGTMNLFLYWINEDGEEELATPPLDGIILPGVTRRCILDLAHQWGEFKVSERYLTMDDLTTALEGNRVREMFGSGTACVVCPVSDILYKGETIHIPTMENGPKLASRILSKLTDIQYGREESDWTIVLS
To be noted: literature reference 7; cited from earlier work.

The target in the next series is T2, BCAT2 (Homo sapiens, UniProt O15382).
T2 sequence (O15382 28-392): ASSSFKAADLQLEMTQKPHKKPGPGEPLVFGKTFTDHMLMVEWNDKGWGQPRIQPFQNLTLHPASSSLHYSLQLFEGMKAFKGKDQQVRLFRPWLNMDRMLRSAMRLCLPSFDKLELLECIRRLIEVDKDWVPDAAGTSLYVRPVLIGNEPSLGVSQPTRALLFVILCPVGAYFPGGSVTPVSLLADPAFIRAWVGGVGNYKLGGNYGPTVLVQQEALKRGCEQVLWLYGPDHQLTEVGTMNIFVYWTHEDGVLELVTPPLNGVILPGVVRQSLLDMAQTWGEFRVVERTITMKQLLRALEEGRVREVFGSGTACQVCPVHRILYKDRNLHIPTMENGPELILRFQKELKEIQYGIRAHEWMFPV
Conditions: literature reference 7; cited from earlier work.

Another series has as its system primary human AML cells. In words: Colony formation assay, primary de novo AML cells. The class given is cell-based. Conditions: FIG. 3G. As for the experimental part: as §2
The next series deals with K562 human BC-CML cells. In words: Colony formation assay, K562 cells. To be noted: for leukemic colony formation: K562, Gabapentin in combination with Imatinib, 300 cells per well, scored on day 5, FIG. 14A. The class given is cell-based. As for the experimental part:
BCAT1 inhibition by Gabapentin is shown in FIG. 14A, leukemic colony formation by human blast crisis CML was attenuated in combination with the tyrosine kinase inhibitor Imatinib. […] Three hundred cells were plated per well in triplicate, and colonies were scored on day 5 (error bars indicates s.e.m. *p<0.05, **p<0.01). Inhibition of leukemic colony formation by gabapentin (Gbp) and its structural analogs was also investigated (FIG. 14B). The colony-forming ability of K562 human CML cells treated with the indicated chemicals was investigated. One hundred fifty cells were plated per well in triplicate, and colonies were scored on day 14 (error bars indicates s.e.m. ***p<0.001 compared with the vehicle control).
as §1

Series [5] relates to S6 kinase (pS6K), a downstream target of mTORC1 kinase. In words: Western blotting for phospho-S6 kinase in K562 cells. To be noted: shBCAT1-d or 20 mM Gbp for 24 h, FIG. 3J. The class given is cell-based, human. On the technique in general: A western blot detects proteins with antibodies after separation by electrophoresis.
Series [6] has as its system primary Lin- BC-CML cells. As to the kind of experiment: Colony formation assay, primary Lin- BC-CML cells. Conditions: primary mouse Lin- BC-CML cells plated with Gbp; FIG. 2B. The class given is cell-based. As for the experimental part:
as §1

Consider `NCC1(CC(=O)O)CCCCC1` [Gbp, 1-(aminomethyl)cyclohexane acetic acid], for which the clonal growth result (in [1]; in the series on primary human AML cells) was “effectively inhibited” throughout. The solubility result in series [2] is recorded as “freely soluble”. Besides, the “colony-forming ability of normal HSPCs” value in the series on normal HSPCs is “only minimally affected”. In addition, the “intracellular concentrations of all three BCAAs” value in [3] is recorded as “significantly reduced”. The colony-forming ability entry is “markedly inhibited” in series [4] and “markedly inhibited” with K562 human BC-CML cells (K562 human BC-CML, FIG. 11A-D). In addition, at BCAT1, the “inhibition of the transaminase activity of BCAT1” value was “specifically and competitively inhibit”. In addition, at BCAT2, the “inhibition of the transaminase activity of BCAT2” value was “but not that of BCAT2”. Besides, the leukemic colony formation result in the series with K562 human BC-CML cells is “attenuated”. Besides, in series [5], the “phosphorylation of S6 kinase (pS6K)” value was “significantly reduced”. In [6], the clonogenic growth result is reported as “dose-dependent impairment”. Further, the colony size result in series [6] is on record as “formed smaller colonies”.

As for `Cc1ccc(NC(=O)c2ccc(CN3CCN(C)CC3)cc2)cc1Nc1nccc(-c2cccnc2)n1` [Imatinib], in the series on K562 human BC-CML cells, the leukemic colony formation entry is recorded as “attenuated”.
